According to US20100210722A1, “COMPOSITION FOR PREVENTING OR TREATING LIPID METABOLIC DISORDERS COMPRISING FUCOXANTHIN OR MARINE PLANT EXTRACT CONTAINING SAME” (AMICOGEN, INC., priority 2007, published 2010):
Marks after values point to notes of the source that are not given here.

What was measured:
Format in all cases: in vivo, C57BL/6N/CriBgi mice
[1] = Body weight of mice fed high fat diet with fucoxanthin extract or highly pure fucoxanthin; settings: high fat diet; for Body weight, Week 0: Week 0 (baseline); for Body weight, Week 0 / Body weight, Week 1 / Body weight, Week 2: in g (unit assumed)
Description: (§1) Seventy (70) 4-week-old male C57BL/6N/CriBgi mice weighing 14 g were purchased from Orient, and reared in separate cages maintained at 24° C. and relative humidity of 55%, providing light from 08:00 until 20:00. The mice were accustomed while providing a pellet type diet for a week. The mice, which weighed 18.5-18.7 g, were grouped into seven groups by the randomized block design. Each group was given a different diet, as follows.
(§2) Test diets were as follows: “normal diet group”=AIN-76 semisynthetic diet of Teklad (Madison, Wl, USA); “high fat diet group”=normal diet+10% of corn oil and 10% of lard; “test group I”=high fat diet+fucoxanthin extract of Example 1 (fucoxanthin content=0.05%); “test group II”=high fat diet+fucoxanthin extract of Example 1 (fucoxanthin content=0.2%); “test group III”=high fat diet+fucoxanthin extract of Example 2 (fucoxanthin content=0.05%); “test group IV”=high fat diet+fucoxanthin extract of Example 2 (fucoxanthin content=0.2%). The 6 diets (normal diet, high fat diet, and test I, II, III and IV) were given to the animals for 6 weeks. Diet intake was recorded every day, and body weight was measured once a week.
During the 6-week test period, body weight was measured every week. Significance of differences of means of the groups was evaluated by one-way analysis of variance (ANOVA) technique. Duncan's multiple range test was employed for post-evaluation of the groups, with P<0.05.

[2] = Triglyceride and cholesterol level in liver tissue; settings: high fat diet, 6 weeks
Description: as §1, §2

[3] = Triglyceride and cholesterol level in plasma; settings: high fat diet, 6 weeks, fasted 12 hours
Description: as §1, §2
The mice fed with the test diets for 6 weeks of Reference Example 1 were fasted for 12 hours. The mice were anesthetized first by ether inhalation, and then by intramuscular injection of ketamine-HCl (Yuhan). […] Plasma was separated by carrying out centrifuge at 3,000 rpm for 15 minutes. The separated plasma was stored at −70° C.

[4] = test system: fatty acid synthase (FAS); test: FAS activity in adipose tissue; settings: high fat diet, 6 weeks
Text: as §2
The supernatant was centrifuged again at 12,000×g for 15 minutes. Then, the supernatant was subjected to high-speed centrifuging (Beckman, Optima TLX-120, USA) at 100,000×g for 1 hour. Then, change of the activity of enzymes involved in the synthesis of fatty acid—fatty acid synthase (FAS), glucose-6-phosphate dehydrogenase (G6PD) and malic enzyme (ME)—was measured.
Specifically, FAS activity was determined as follows. […] After 10 minutes of reaction at 30° C., decrease of absorbance was measured. FAS activity was calculated as nmol of NADPH oxidized per 1 mg of protein in cell per minute.

FAS mRNA = test: Expression of mRNA for FAS in adipose tissue (real-time PCR); settings: normal diet = 1.00, GAPDH internal marker
Text: as §2
(§3) 5 mL of Trizol was added to 0.5 g of white adipose tissue. After pulverizing in liquid nitrogen using a mortar, the tissue was added to 1 mL of chloroform. […] The isolated RNA was diluted and absorbance was measured at 260 nm using a UV spectrometer. […]
(§4) Thus prepared cDNA was […] 10-fold, and primers for analyzing the expression of the respective genes (CPT, β-oxidation, FAS, ME and G6PD) were obtained from Genotech (Daejeon, Korea). […] Fluorescence signals were monitored for each cycle and threshold cycle (Cr) was analyzed for quantitative analysis of mRNA for the test groups (Applied Biosystems, SDS7000) (Livak, 2001). […]

ME mRNA [5] = test: Expression of mRNA for ME in adipose tissue (real-time PCR); settings: normal diet = 1.00, GAPDH internal marker
Text: as §2, §3, §4

ME mRNA [6] = test: Expression of mRNA for ME in liver tissue (real-time PCR)
[7] = fucoxanthin content 0.05% (Test I/III)
[8] = fucoxanthin content 0.2% (Test II/IV)

## CC(=O)O[C@H]1CC(C)(C)C(=C=C/C(C)=C/C=C/C(C)=C/C=C/C=C(C)/C=C/C=C(\C)C(=O)C[C@@]23O[C@]2(C)C[C@@H](O)CC3(C)C)[C@](C)(O)C1 [highly pure fucoxanthin, Fucoxanthin]
[1]; [7]
  Body weight, Week 0: 18.56 ± 0.3
  Body weight, Week 1: 20.19 ± 0.2
  Body weight, Week 2: 21.79 ± 0.3
  Body weight, Week 3: 22.70 ± 0.2^b
  Body weight, Week 4: 24.39 ± 0.3^b
  Body weight, Week 5: 26.46 ± 0.3^b
  Body weight, Week 6: 27.80 ± 0.3^b
[1]; [8]
  Body weight, Week 0: 18.58 ± 0.3
  Body weight, Week 1: 20.19 ± 0.3
  Body weight, Week 2: 22.30 ± 0.3
  Body weight, Week 3: 22.96 ± 0.4^ab
  Body weight, Week 4: 25.17 ± 0.5^ab
  Body weight, Week 5: 26.39 ± 0.6^b
  Body weight, Week 6: 27.37 ± 0.7^bc
[2]; [7]
  Triglyceride level in liver tissue: 0.14 ± 0.01^c mmol/g liver
[2]; [8]
  Triglyceride level in liver tissue: 0.17 ± 0.02^b mmol/g liver
[3]; [7]
  Cholesterol level in plasma: 2.35 ± 0.22^a mmol/L
  Triglyceride level in plasma: 1.15 ± 0.07^b mmol/L
[3]; [8]
  Cholesterol level in plasma: 2.35 ± 0.11^b mmol/L
  Triglyceride level in plasma: 1.24 ± 0.07^b mmol/L
[4]; [7]
  FAS activity: 90.55 ± 9.66^a mmol/min/mg protein
[4]; [8]
  FAS activity: 74.26 ± 6.38^a mmol/min/mg protein
FAS mRNA; [7]
  Expression of mRNA, FAS: 0.51 ± 0.03^abc
FAS mRNA; [8]
  Expression of mRNA, FAS: 0.28 ± 0.05^a
ME mRNA [5]; [7]
  Expression of mRNA, ME: 0.70 ± 0.07^ab
ME mRNA [5]; [8]
  Expression of mRNA, ME: 0.52 ± 0.06^a
ME mRNA [6]; normal diet = 1.00, fucoxanthin content 0.05% (Test I/III)
  Expression of mRNA, ME: 0.84 ± 0.08^bc
ME mRNA [6]; normal diet = 1.00, fucoxanthin content 0.2% (Test II/IV)
  Expression of mRNA, ME: 0.53 ± 0.03^a
